Reference: ChEMBL document CHEMBL3044595, “Bioactivity of latifolin and its derivatives against termites and fungi” (2009)
The source made the active and inactive calls. The rule behind the calls is not given here.

Columns and labels:
[1] = tested on: Fomitopsis palustris; assay: Antifungal activity against Fomitopsis palustris NBRC 30339 assessed as diameter of mycelial growth at 5 ug/cm'2 at 25.5 degC after 14 days; format: functional
[2] = tested on: Rhizopus arrhizus; assay: Antifungal activity against Rhizopus oryzae NBRC 31005 assessed as mycelial growth inhibition at 5 ug/cm'2 at 25.5 degC after 36 hr; format: functional, organism-based
[3] = tested on: Reticulitermes speratus; assay: Antifeedant activity against Reticulitermes speratus in compound pretreated paper disks assessed as mass loss of the paper disk at 3% measured after 14 days (reference value: 7.67 mg); format: functional
[4] = tested on: Fomitopsis palustris; assay: Antifungal activity against Fomitopsis palustris NBRC 30339 assessed as mycelial growth inhibition at 5 ug/cm2 at 25.5 degC after 14 days; format: functional
[5] = tested on: Cladosporium cladosporioides; assay: Antifungal activity against Cladosporium cladosporioides NBRC 6348 assessed as diameter of mycelial growth at 5 ug/cm'2 at 25.5 degC after 20 days; format: functional
[6] = tested on: Reticulitermes speratus; assay: Ratio of antifeedant activity for compound to antifeedant activity for latifolin against Reticulitermes speratus at 3% measured after 14 days; format: functional
[7] = tested on: Trametes versicolor; assay: Antifungal activity against Trametes versicolor NBRC 30340 assessed as mycelial growth inhibition at 5 ug/cm'2 at 25.5 degC after 5 days; format: functional
[8] = tested on: Trametes versicolor; assay: Antifungal activity against Trametes versicolor NBRC 30340 assessed as diameter of mycelial growth at 5 ug/cm'2 at 25.5 degC after 5 days; format: functional
[9] = tested on: Reticulitermes speratus; assay: Ratio of antitermite activity for compound to antitermite activity for latifolin against Reticulitermes speratus at 3% measured after 14 days; format: functional
[10] = tested on: Reticulitermes speratus; assay: Antitermite activity against Reticulitermes speratus in compound pretreated paper disks assessed as mortality at 3% measured after 14 days; format: functional

For `C=C[C@H](c1ccccc1OC)c1cc(O)c(OC)cc1OC` [2'-O-METHYLLATIFOLIN], the Activity [1] was 42.5 mm, the inhibition [2] was “inactive” and the Activity [3] was 0.82 mg. For the same compound, the “inhibition (INH)” value [4] was 18.3%, the Activity [5] was 30 mm and the Ratio [6] was 1.98. For the same compound, the “inhibition (INH)” value [7] was 16.5%, the Activity [8] was 60 mm and the Ratio [9] was 1.75. It also gave a mortality [10] of 46.7%.

`C=C[C@H](c1ccccc1O)c1cc(OC)c(OC)cc1OC` [5-O-METHYLLATIFOLIN] was tested, and the Activity [1] was 52.3 mm, the inhibition [2] was “inactive” and the Activity [3] was 1.29 mg. For the same compound, the “inhibition (INH)” value [4] was -0.5%, the Activity [5] was 29.2 mm and the Ratio [6] was 3.25. For the same compound, the “inhibition (INH)” value [7] was 13.2%, the Activity [8] was 62.3 mm and the Ratio [9] was 1.13. The mortality [10] was 30%.

For `C=C[C@@H](c1cc(OC(C)=O)c(OC)cc1OC)c1ccccc1OC(C)=O` [LATIFOLIN DIACETATE], the Activity [1] was 51.3 mm, the inhibition [2] was “inactive” and the Activity [3] was 1.13 mg. For the same compound, the “inhibition (INH)” value [4] was 1.4%, the Activity [5] was 28.7 mm and the Ratio [6] was 2.89. For the same compound, the “inhibition (INH)” value [7] was 21.8%, the Activity [8] was 56.2 mm and the Ratio [9] was 2. It also gave a mortality [10] of 53.3%.

`C=C[C@H](c1ccccc1OC)c1cc(OC)c(OC)cc1OC` [LATIFOLIN DIMETHYL ETHER] was tested, and the Activity [1] was 57 mm, the inhibition [2] was “inactive” and the Activity [3] was 1.27 mg. For the same compound, the “inhibition (INH)” value [4] was -9.6%, the Activity [5] was 29.3 mm and the Ratio [6] was 3.42. For the same compound, the “inhibition (INH)” value [7] was 15.3%, the Activity [8] was 60.8 mm and the Ratio [9] was 2.13. For the same compound, the mortality [10] was 56.7%.

For `C=C[C@H](c1ccccc1O)c1cc(O)c(OC)cc1OC` [LATIFOLIN], the Activity [1] was 32.5 mm, the inhibition [2] was “inactive” and the Activity [3] was 0.39 mg. For the same compound, the “inhibition (INH)” value [4] was 37.5%, the Activity [5] was 26.2 mm and the “inhibition (INH)” value [7] was 79.1%. It also gave an Activity [8] of 15 mm and a mortality [10] of 26.7%.
